According to patent US20150011566A1, “N-PHENYLPIPERAZINE DERIVATIVES THAT ARE ANTAGONISTS OF A1A, A1D ADRENOCEPTORS AND 5-HT1A RECEPTORS FOR THE TREATMENT OF BENIGN PROSTATE HYPERPLASIA, PHARMACEUTICAL COMPOSITIONS CONTAINING THE SAME” (UNIVERSIDADE FEDERAL DO RIO DE JANEIRO-UFRJ, priority 2012, published 2015):
Like-named read-outs stand apart in the source and are kept apart here.

Tests used:
[1] = molecular target: T1, α2A receptors (Rattus norvegicus, UniProt P22909); experiment: Binding of [3H]RX821002 to α2A receptors (rat cortex membranes)
T1 construct: from tissue; host or cells: rat cortex membranes
T1 sequence (P22909 1-465): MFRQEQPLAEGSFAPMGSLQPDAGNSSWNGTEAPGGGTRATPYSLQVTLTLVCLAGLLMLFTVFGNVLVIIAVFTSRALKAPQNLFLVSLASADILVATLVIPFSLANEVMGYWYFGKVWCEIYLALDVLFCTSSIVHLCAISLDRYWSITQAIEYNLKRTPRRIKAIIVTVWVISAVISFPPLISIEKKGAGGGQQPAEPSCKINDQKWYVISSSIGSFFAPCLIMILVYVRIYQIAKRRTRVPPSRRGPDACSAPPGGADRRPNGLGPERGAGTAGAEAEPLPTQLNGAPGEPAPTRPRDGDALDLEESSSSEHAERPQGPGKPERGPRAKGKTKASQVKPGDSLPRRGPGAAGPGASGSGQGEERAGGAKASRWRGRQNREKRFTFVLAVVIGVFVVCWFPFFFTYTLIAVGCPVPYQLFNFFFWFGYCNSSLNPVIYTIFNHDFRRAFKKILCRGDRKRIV
Procedure: Membrane preparations of rat cortex as described previously in the literature were performed. The organs were homogenized in a Potter with the aid of a motor unit (Fisatom) and Teflon piston in the proportion of 20 parts of 50 mM Tris HCl (pH 7.4 at 4° C.) for one piece of material, three times for 30 seconds each time, at intervals the solution was allowed to stand on ice for 1 minute.
Then it was performed a centrifugation at 900×g for 10 minutes at 4° C. It was obtained a […] which was resuspended in solution cold 50 mM Tris-HCl (pH 7.4) and the same procedure was performed once more. The supernatant was then centrifuged at 48,000×g for 10 minutes at 4° C. yielding a pellet which was resuspended at a ratio of 20 parts of 50 mM Tris HCl (pH 7.4 at 4° C.) for one piece of material, and incubated at 37° C. for 10 minutes in order to remove the endogenous neurotransmitters. Finally, centrifugation two times more at 48,000×g was performed for 10 minutes at 4° C., and then the final pellet was resuspended in a solution of 50 mM Tris-HCl (pH 7.4).
Binding assays for the α2A receptor were performed as described previously in the literature and previously standardized in the laboratory by saturation experiments. […] Incubate for 60 minutes at 30° C., 150 membrane preparation of rat cortex contained 50 μL was suspended in 50 mM Tris-HCl into tubes containing 400 μL intermediate solution ([3H] RX821002 1.25 nM, 50 mM Tris (pH 7.4 at 37° C.) and 50 μL of different concentrations of LDT's (final concentration 10^−7-3×10^−5 M to LDT65-68) or 50 μL of 50 mM Tris-HCl pH 7.4 at 37° C. (solvent for dilution of the LDT's), to determine the total binding or 50 μL nonradioactive bitartrate adrenaline at 100 μM for determining the non-specific bounding (final volume 500 μL). Assays were performed in triplicate.
After the incubation period, the reaction was stopped by adding 4 mL ice cold solution containing 5 mM Tris (pH 7.4), followed by vacuum filtration on glass fiber filter (GMF 3, Filtrak®) previously soaked with solution 0.5% polyethylenoimine. The filters were washed three times with 4 mL of ice-cold solution containing 5 mM Tris (pH 7.4) under vacuum to remove all free radioligand. Then the filters were dried and placed in vials containing 5 ml scintillation fluid (composition: 4% PPO, 0.1% POPOP w/v in toluene). The radioactivity retained on the filters was then determined in a liquid scintillation counter (Packard Tri-Carb 1600 TR). Specific binding of [3H]RX821002 to a2A receptors was defined as the difference between total binding and non-specific binding. To these receptors were determined and IC50 and Ki parameters.

[2] = Acute toxicity test in Swiss mice (body temperature, behaviour for 14 days); type: in vivo; details: n=6; for T (° C.) Basal Measure: body temperature before treatment; for T (° C.) 30′ after LDT / T (° C.) 60′ after LDT: body temperature, 100 mg/kg ip
Procedure: Swiss mice (female, 25-30 g, 6 animals per condition) were treated with LDT via intraperitoneal with LTD's at a dose of […] and observed for 14 days in the behavioral framework according to described method (LORKE, D., Arch Toxicol, 54 (4): 275-87, 1983, modified). The temperature was measured by retal probe before and after 30 and 60 min of described treatment.

[3] = molecular target: D2-Like receptors (Rattus norvegicus, UniProt P61169); experiment: D2-like receptors binding assay, [3H]-YM 09151-2 (rat striatal membranes); details: Table 15; for Ki: Cheng-Prusoff
Sequence of D2-Like receptors (P61169 whole entry): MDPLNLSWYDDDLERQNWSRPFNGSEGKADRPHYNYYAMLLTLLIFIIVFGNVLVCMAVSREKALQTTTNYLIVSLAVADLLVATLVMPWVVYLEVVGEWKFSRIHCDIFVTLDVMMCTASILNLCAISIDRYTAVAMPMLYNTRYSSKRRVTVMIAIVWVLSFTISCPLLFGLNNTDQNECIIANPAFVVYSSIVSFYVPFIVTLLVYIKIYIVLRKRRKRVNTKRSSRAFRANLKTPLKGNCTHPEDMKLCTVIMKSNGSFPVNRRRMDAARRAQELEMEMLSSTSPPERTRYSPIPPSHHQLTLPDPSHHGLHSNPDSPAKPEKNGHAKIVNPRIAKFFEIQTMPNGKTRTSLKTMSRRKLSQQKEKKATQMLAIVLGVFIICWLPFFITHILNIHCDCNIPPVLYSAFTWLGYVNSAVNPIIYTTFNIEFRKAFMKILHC
Procedure: Briefly, organs were homogenized for 30 seconds three times in Fisatom in 50 mM Tris-HCl, MgCl2 8 mM, 5 mM EDTA (pH 7.4 at 4° C.) and then centrifuged at 48,000×gav (20 minutes 4° C.). The pellet was resuspended in 50 mM Tris-HCl, 8 mM MgCl2, 5 mM EDTA (pH 7.4 at 37° C.), incubated at 37° C. for 10 minutes and centrifuged twice more. The final pellet was resuspended in the same buffer at a concentration of 1.5 mL/g tissue.
Non-specific binding was measured in the presence of 30 μM sulpiride. Assays were performed in triplicate.
The radioactivity retained on the filters was then determined in a liquid scintillation counter (Packard Tri-Carb 1600 TR). For these receptors were also determined IC50 and Ki parameters.

[4] = molecular target: muscarinic receptors; type: binding, rat; details: Table 14; for Ki: Cheng-Prusoff
[5] = Table 6, Cheng-Prusoff, read-out: Ki
[6] = Table 12, Cheng-Prusoff, read-out: Ki
[7] = Table 12, read-out: -log IC50 (converted)

Row | Structure (SMILES) | log IC50 (M) ([1]; Table 6) | Ki [1, 5] [nM] | T (° C.) Basal Measure [2] [°C] | T (° C.) 30′ after LDT [2] [°C] | T (° C.) 60′ after LDT [2] [°C] | -log IC50 (M) [3] [M] | Ki [3] [nM] | -log 1050 (M) [4] [M] | Ki [4] [nM] | IC50 [1] [nM] | Ki [1] [nM] | Ki [1, 6] [nM] | IC50 [1, 7] [nM]
1 | CCCCCCN1CCN(c2ccccc2OC)CC1 [LDT 66] | −5.92 ± 0.06 | 800 | 37.00 | 37.50 | 37.33 | 6.92 ± 0.11 | 40 | 3.8 ± 0.08 | 54200 | – | – | – | –
2 | COc1ccc(CCN2CCN(c3ccccc3OC)CC2)cc1OC [LDT 5] | – | – | 35.00 | 35.50 | 35.17 | – | 100 | 3.97 ± 0.06 | 108000 | 295 | 240 | – | –
3 | CCCCCCCCN1CCN(c2ccccc2OC)CC1 [LDT 68] | −6.01 ± 0.03 | 600 | – | – | – | 7.49 ± 0.09 | 9 | 4.5 ± 0.05 | 10800 | – | – | – | –
4 | CCCCCN1CCN(c2ccccc2OC)CC1 [LDT 65] | – | – | 37.17 | 37.17 | 37.17 | – | – | 3.3 ± 0.08 | 172000 | 2510 | 1500 | – | –
5 | CCOc1ccccc1N1CCN(CCc2ccc(OC)c(OC)c2)CC1 [LDT 245] | – | – | – | – | – | – | – | – | – | 2000 | 160 | – | –
6 | CCCCCCCN1CCN(c2ccccc2OC)CC1 [LDT 67] | −6.10 ± 0.06 | 500 | – | – | – | 7.47 ± 0.07 | 9 | 4.2 ± 0.02 | 21000 | – | – | – | –
7 | CCOc1ccccc1N1CCN(CCc2ccc3c(c2)OCO3)CC1 [LDT 8] | – | – | 35.67 | 35.67 | 35.50 | – | – | 4.48 ± 0.07 | 33900 | – | – | 550 | 603
8 | COc1cccc(CCN2CCN(c3ccccc3OC)CC2)c1 [LDT 3] | – | – | 35.33 | 35.50 | 35.50 | – | – | 4.26 ± 0.07 | 56700 | – | – | 930 | 1100
